pIC50: −log10 of the molar value.

purified human MMP-12 enzyme, sequence (P39900 106-470): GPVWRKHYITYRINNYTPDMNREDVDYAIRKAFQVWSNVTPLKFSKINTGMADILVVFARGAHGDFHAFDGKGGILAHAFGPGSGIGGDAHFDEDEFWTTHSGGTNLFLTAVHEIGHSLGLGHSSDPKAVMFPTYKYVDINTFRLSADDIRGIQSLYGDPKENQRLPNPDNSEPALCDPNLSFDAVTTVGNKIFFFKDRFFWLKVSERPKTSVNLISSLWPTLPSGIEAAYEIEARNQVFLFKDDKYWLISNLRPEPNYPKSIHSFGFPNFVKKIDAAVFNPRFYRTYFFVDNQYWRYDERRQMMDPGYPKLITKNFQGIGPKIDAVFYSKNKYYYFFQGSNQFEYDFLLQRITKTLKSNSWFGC

This experiment has as its target purified human MMP-12 enzyme (Homo sapiens, UniProt P39900). Description: MMP-12 FRET assay. It is filed as biochemical. The settings on record: substrate 20 μM, room temperature. As for the experimental part:
Compounds according to the present teachings were tested in an MMP-12 FRET assay as follows. To each well of black polystyrene 96-well plate was added assay buffer (50 mM HEPES (pH 7.4), 100 mM NaCl, 5 mM CaCl2 and 0.005% Brij-35 (Polyoxyethyleneglycol dodecyl ether, Pierce cat#20150), purified human MMP-12 enzyme, and varied concentrations of test compounds (prepared by serial dilution of a stock solution in 100% DMSO). The plates were incubated at room temperature for 30 minutes. The enzymatic reactions were initiated by addition of a substrate, MCA-Pro-Leu-Gly-Leu-Dpa(DNP)-Ala-Arg, containing a fluorescent group (7-methoxycoumarin, MCA) and a 2,4-dinitrophenyl group (DNP), to a final concentration of 20 μM. The final DMSO concentration in the assay was 10%. The reaction was monitored for 30 minutes at room temperature and the initial rate of the cleavage reaction was determined using a fluorescence plate reader (λex: 325 nm, λem: 395 nm). Plots of the inhibitor concentration vs. the initial cleavage rate were fit to the following equation: y=Vmax*(1−(x^n/(K^n+x^n))), whereby x=inhibitor concentration, y=initial rate, Vmax=initial rate in the absence of inhibitor, n=slope factor, and K=IC50 for the inhibition curve.
For the molecule `CC(C)[C@H](NS(=O)(=O)c1ccc2c(c1)oc1ccc(C(=N)NCc3ccccc3)cc12)C(=O)O` [Compound 88, (S)-2-(8-(N-benzylcarbamimidoyl)dibenzo[b,d]furan-3-sulfonamido)-3-methylbutanoic acid], the pIC50 (usually the IC50 on a negative log10 scale, so that one unit is a factor of ten) was 7.33. For `CC(C)[C@H](NS(=O)(=O)c1ccc2c(c1)oc1cc(-c3cc4ccccc4o3)ccc12)C(=O)O` [Compound 143, (S)-2-(7-(benzofuran-2-yl)dibenzo[b,d]furan-3-sulfonamido)-3-methylbutanoic acid] the value was 8.96; for `CC(C)[C@@H](NS(=O)(=O)c1ccc2oc3cc(/C=C/C4CCCCC4)ccc3c2c1)C(=O)O` [Compound 104, (R,E)-2-(7-(2-cyclohexylvinyl)dibenzo[b,d]furan-2-sulfonamido)-3-methylbutanoic acid], 7.23. For `COc1ccc(-c2ccc3oc4cc(S(=O)(=O)N[C@H](C(=O)O)C(C)C)ccc4c3c2)cn1` [Compound 10, (S)-2-(8-(6-methoxypyridin-3-yl)dibenzo[b,d]furan-3-sulfonamido)-3-methylbutanoic acid], the pIC50 was more than 8.82. Under `CC(C)[C@H](NS(=O)(=O)c1ccc2c(c1)oc1ccc(C#CCN(C)C)cc12)C(=O)O` [Compound 2, (S)-2-(8-(3-(dimethylamino)prop-1-ynyl)dibenzo[b,d]furan-3-sulfonamido)-3-methylbutanoic acid] stands 8.62. For `CC(C)[C@H](NS(=O)(=O)c1ccc2c(c1)oc1ccc(C3=NCCS3)cc12)C(=O)O` [Compound 107, (S)-2-(8-(4,5-dihydrothiazol-2-yl)dibenzo[b,d]furan-3-sulfonamido)-3-methylbutanoic acid] the value was 7.68.

For `Cc1noc(C)c1-c1ccc2c(c1)oc1ccc(S(=O)(=O)N[C@@H](C(=O)O)C(C)C)cc12` [Compound 145, (R)-2-(7-(3,5-dimethylisoxazol-4-yl)dibenzo[b,d]furan-2-sulfonamido)-3-methylbutanoic acid], the pIC50 was 7.54. This pIC50 and that of the molecule before are within 0.2 log units of each other. Molecule `CC(C)[C@H](NS(=O)(=O)c1ccc2c(c1)oc1ccc(-c3nc4ccc(OC(F)(F)F)cc4s3)cc12)C(=O)O` [Compound 221, (S)-3-methyl-2-(8-(6-(trifluoromethoxy)benzo[d]thiazol-2-yl)dibenzo[b,d]furan-3-sulfonamido)butanoic acid] showed a pIC50 of 8.77.

In the case of `CC(C)[C@H](NS(=O)(=O)c1ccc2c(c1)oc1ccc(-c3ncc(CN4CCN(C)CC4)s3)cc12)C(=O)O` [Compound 212, (S)-3-methyl-2-(8-(5-((4-methylpiperazin-1-yl)methyl)thiazol-2-yl)dibenzo[b,d]furan-3-sulfonamido)butanoic acid], the pIC50 is 7.07. For `CC(C)C[C@H](NS(=O)(=O)c1ccc2c(c1)oc1ccc(-c3noc(C(C)(C)C)n3)cc12)C(=O)O` [Compound 252, (S)-2-(8-(5-tert-butyl-1,2,4-oxadiazol-3-yl)dibenzo[b,d]furan-3-sulfonamido)-4-methylpentanoic acid] the value was 7.92; for `Cc1nc(-c2cnc(-c3ccc4c(c3)oc3cc(S(=O)(=O)N[C@H](C(=O)O)C(C)C)ccc34)s2)no1` [Compound 228, (S)-3-methyl-2-(7-(5-(5-methyl-1,2,4-oxadiazol-3-yl)thiazol-2-yl)dibenzo[b,d]furan-3-sulfonamido)butanoic acid], more than 8.82; for `CC(C)[C@@H](NS(=O)(=O)c1ccc2c(c1)oc1ccc(-c3ccc4c(c3)C(C)(C)OC(=O)N4)cc12)C(=O)O` [Compound 1, (R)-2-(8-(4,4-dimethyl-2-oxo-2,4-dihydro-1H-benzo[d][1,3]oxazin-6-yl)dibenzo[b,d]furan-3-sulfonamido)-3-methylbutanoic acid], 7.96. For `Cc1nc(CC(C)C)sc1-c1ccc2c(c1)oc1cc(S(=O)(=O)N[C@H](C(=O)O)C(C)C)ccc12` [Compound 235, (S)-2-(7-(2-isobutyl-4-methylthiazol-5-yl)dibenzo[b,d]furan-3-sulfonamido)-3-methylbutanoic acid] the value was 7.96; for `CC(=O)c1ccc(-c2ccc3oc4cc(S(=O)(=O)N[C@H](C(=O)O)C(C)C)ccc4c3c2)s1` [Compound 32, (S)-2-(8-(5-acetylthiophen-2-yl)dibenzo[b,d]furan-3-sulfonamido)-3-methylbutanoic acid], more than 8.82; for `CC(C)[C@@H](NS(=O)(=O)c1ccc2oc3cc(-c4cc5ccccc5n4C)ccc3c2c1)C(=O)O` [Compound 121, (R)-3-methyl-2-(7-(1-methyl-1H-indol-2-yl)dibenzo[b,d]furan-2-sulfonamido)butanoic acid], 6.85. Under `CC(C)[C@H](NS(=O)(=O)c1ccc2c(c1)oc1cc(-c3cc4ccccc4s3)ccc12)C(=O)O` [Compound 136, (S)-2-(7-(benzo[b]thiophen-2-yl)dibenzo[b,d]furan-3-sulfonamido)-3-methylbutanoic acid] stands more than 8.82. The molecule `CCCc1ccc(-c2ccc3oc4cc(S(=O)(=O)N[C@H](C(=O)O)C(C)C)ccc4c3c2)s1` [Compound 197, (S)-3-methyl-2-(8-(5-propylthiophen-2-yl)dibenzo[b,d]furan-3-sulfonamido)butanoic acid] had a pIC50 of more than 8.82. The molecule `CCC(C)Cn1cc(-c2ccc3c(c2)oc2ccc(S(=O)(=O)N[C@@H](C(=O)O)C(C)C)cc23)cn1` (stereo partly drawn) [Compound 170, (2R)-3-methyl-2-(7-(1-(2-methylbutyl)-1H-pyrazol-4-yl)dibenzo[b,d]furan-2-sulfonamido)butanoic acid] gave a pIC50 of 8.28. Under `Cc1nc(-c2ccc(-c3ccc4oc5cc(S(=O)(=O)N[C@H](C(=O)O)C(C)C)ccc5c4c3)s2)no1` [Compound 199, (S)-3-methyl-2-(8-(5-(5-methyl-1,2,4-oxadiazol-3-yl)thiophen-2-yl)dibenzo[b,d]furan-3-sulfonamido)butanoic acid] stands more than 8.82; under `Cc1nnc(-c2ccc3oc4cc(S(=O)(=O)N[C@H](C(=O)O)C(C)C)ccc4c3c2)s1` [Compound 146, (S)-3-methyl-2-(8-(5-methyl-1,3,4-thiadiazol-2-yl)dibenzo[b,d]furan-3-sulfonamido)butanoic acid], 8.77.

On to `COC(=O)C#Cc1ccc2oc3cc(S(=O)(=O)N[C@H](C(=O)O)C(C)C)ccc3c2c1` [Compound 6, (S)-2-(8-(3-methoxy-3-oxoprop-1-ynyl)dibenzo[b,d]furan-3-sulfonamido)-3-methylbutanoic acid], for which the pIC50 was 7.52.

Molecule `Cc1nc(C)c(-c2ccc3c(c2)oc2ccc(S(=O)(=O)N[C@@H](C(=O)O)C(C)C)cc23)s1` [Compound 169, (R)-2-(7-(2,4-dimethylthiazol-5-yl)dibenzo[b,d]furan-2-sulfonamido)-3-methylbutanoic acid] gave a pIC50 of 7.96. For `CC(C)[C@H](NS(=O)(=O)c1ccc2c(c1)oc1cc(-c3noc(C(C)(C)C)n3)ccc12)C(=O)O` [Compound 155, (S)-2-(7-(5-tert-butyl-1,2,4-oxadiazol-3-yl)dibenzo[b,d]furan-3-sulfonamido)-3-methylbutanoic acid] the value was 7.96; for `Cc1nc(CC(C)C)sc1-c1ccc2oc3cc(S(=O)(=O)N[C@H](C(=O)O)C(C)C)ccc3c2c1` [Compound 204, (S)-2-(8-(2-isobutyl-4-methylthiazol-5-yl)dibenzo[b,d]furan-3-sulfonamido)-3-methylbutanoic acid], 7.89; for `CC(C)[C@H](NS(=O)(=O)c1ccc2c(c1)sc1ccc(-c3ccsc3Cl)cc12)C(=O)O` [Compound 52, (S)-2-(8-(2-chlorothiophen-3-yl)dibenzo[b,d]thiophene-3-sulfonamido)-3-methylbutanoic acid], 7.72. For `CC(C)[C@@H](NS(=O)(=O)c1ccc2oc3cc(-c4ccco4)ccc3c2c1)C(=O)O` [Compound 98, (R)-2-(7-(furan-2-yl)dibenzo[b,d]furan-2-sulfonamido)-3-methylbutanoic acid] the value was more than 8.82; for `Cc1nc(-c2ccccc2)sc1-c1ccc2c(c1)oc1ccc(S(=O)(=O)N[C@@H](C(=O)O)C(C)C)cc12` [Compound 176, (R)-3-methyl-2-(7-(4-methyl-2-phenylthiazol-5-yl)dibenzo[b,d]furan-2-sulfonamido)butanoic acid], 7.01. For `CC(C)[C@H](NS(=O)(=O)c1ccc2c(c1)oc1ccc(-c3sccc3CN(C)C)cc12)C(=O)O` [Compound 49, (S)-2-(8-(3-((dimethylamino)methyl)thiophen-2-yl)dibenzo[b,d]furan-3-sulfonamido)-3-methylbutanoic acid] the value was 6.64; for `CC(C)[C@H](NS(=O)(=O)c1ccc2c(c1)oc1ccc(-c3noc(CC(C)(C)C)n3)cc12)C(=O)O` [Compound 261, (S)-3-methyl-2-(8-(5-neopentyl-1,2,4-oxadiazol-3-yl)dibenzo[b,d]furan-3-sulfonamido)butanoic acid], 8.27; for `CC(C)[C@H](NS(=O)(=O)c1ccc2c(c1)oc1ccc(-c3nn[nH]n3)cc12)C(=O)O` [Compound 130, (S)-2-(8-(2H-tetrazol-5-yl)dibenzo[b,d]furan-3-sulfonamido)-3-methylbutanoic acid], 5.72. “(S)-3-methyl-2-(8-(5-((methylamino)methyl)furan-2-yl)dibenzo[b,d]furan-3-sulfonamido)butanoic acid [Compound 68]” had a negative logarithm of the IC50 (pIC50) of 7.89.
